Assay results: patent US10597388B2, “Pyridazinone herbicides” (FMC CORPORATION, priority 2014, dated 2020)

How the values were obtained:
Type in all cases: in vivo
[1] = test system: ragweed (common ragweed, Ambrosia elatior); assay: Test A greenhouse herbicide test, pre- and postemergence
Method in brief: (§1)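 Seeds in loam–sand blend received a preemergence directed soil spray; plants at 2–10 cm, one- to two-leaf stage, received postemergence sprays. Compounds in a non-phytotoxic solvent with surfactant. After about 10 d in a greenhouse, injury rated visually versus untreated controls on a 0–100 scale (100 = complete control).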

[2] = test system: barnyardgrass (Echinochloa crus-galli); assay: as above
Method in brief: as §1

corn (Zea mays) = assay: as above; conditions: Postemergence
Method in brief: as §1

[3] = test system: pigweed (Amaranthus retroflexus); assay: as above
Method in brief: as §1

[4] = test system: wheat (Triticum aestivum); assay: as above; conditions: Postemergence
Method in brief: as §1

kochia (Kochia scoparia) [5] = assay: as above
Method in brief: as §1

[6] = test system: foxtail, giant (giant foxtail, Setaria faberii); assay: as above
Method in brief: as §1

[7] = test system: oat, wild (wild oat, Avena fatua); assay: Test C greenhouse herbicide test, postemergence; conditions: Postemergence
Method in brief: (§2)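 Steps: pot plants in peat-based medium; spray postemergence at 1- to 4-leaf stage; hold in greenhouse 13 to 15 d; score visually against controls from 0 (no effect) to 100 (complete control).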

[8] = test system: chickweed (common chickweed, Stellaria media); assay: Test C greenhouse herbicide test, postemergence; conditions: for Plant response rating, Chickweed: Postemergence
Method in brief: as §2

kochia (Kochia scoparia) [9] = assay: Test C greenhouse herbicide test, postemergence; conditions: Postemergence
Method in brief: as §2

[10] = Postemergence, 125 g ai/ha, 0 to 100 scale where 0 is no effect and 100 is complete control
[11] = Postemergence, 500 g ai/ha, visual rating after approx. 10 d, 0 to 100 scale (0 no effect, 100 complete control)
[12] = Preemergence, 125 g ai/ha, 0 to 100 scale where 0 is no effect and 100 is complete control
[13] = Preemergence, 500 g ai/ha, 0 to 100 scale where 0 is no effect and 100 is complete control
[14] = 125 g ai/ha, 0 to 100 scale where 0 is no effect and 100 is complete control
[15] = 500 g ai/ha, visual rating after approx. 10 d, 0 to 100 scale (0 no effect, 100 complete control)
[16] = 31 g ai/ha, scale 0 to 100 (0 no effect, 100 complete control)
[17] = 125 g ai/ha, scale 0 to 100, 0 is no effect, 100 is complete control
[18] = 250 g ai/ha, scale 0 to 100, 0 no effect, 100 complete control, 13 to 15 d

Structure (SMILES): CCCC(=O)Oc1c(C)nn(C)c(=O)c1-c1c(CC)sc2ccc(C)cc12 [Compound 107]
- Plant response rating, Ragweed [1, 10]: 90
- Plant response rating, Ragweed [1, 11]: 90
- Ragweed plant response rating [1, 12]: 90
- Plant response rating, Ragweed [1, 13]: 100
- Plant response rating, Barnyardgrass [2, 10]: 60
- Barnyardgrass plant response rating ([2]; Postemergence, 500 g ai/ha, 0 to 100 scale, 0 is no effect, 100 is complete control): 100
- Barnyardgrass plant response rating [2, 12]: 70
- Plant response rating, Barnyardgrass [2, 13]: 100
- Plant response rating, Corn (corn (Zea mays); [14]): 0
- Plant response rating, Corn (corn (Zea mays); [15]): 30
- Plant response rating, Pigweed [3, 10]: 90
- Plant response rating, Pigweed [3, 11]: 90
- Pigweed plant response rating [3, 12]: 100
- Plant response rating, Pigweed [3, 13]: 100
- Plant response rating, Wheat [4, 14]: 30
- Plant response rating, Wheat [4, 15]: 20
- Plant response rating, Kochia (kochia (Kochia scoparia) [5]; [10]): 80
- Plant response rating, Kochia (kochia (Kochia scoparia) [5]; [11]): 90
- Kochia plant response rating (kochia (Kochia scoparia) [5]; [12]): 20
- Plant response rating, Kochia (kochia (Kochia scoparia) [5]; [13]): 90
- Plant response rating, Foxtail, Giant [6, 10]: 70
- Plant response rating, Foxtail, Giant [6, 11]: 90
- Foxtail, Giant plant response rating [6, 12]: 70
- Plant response rating, Foxtail, Giant [6, 13]: 100
- Plant response rating, Oat, Wild [7, 16]: 20
- Plant response rating, Oat, Wild [7, 17]: 40
- Plant response rating, Oat, Wild [7, 18]: 35
- Plant response rating, Chickweed [8, 16]: 90
- Plant response rating, Chickweed [8, 17]: 95
- Plant response rating, Chickweed [8, 18]: 98
- Chickweed plant response rating ([8]; postemergence, 62 g ai/ha, scale 0 to 100, 0 no effect, 100 complete control): 90
- Plant response rating, Kochia (kochia (Kochia scoparia) [9]; [16]): 70
- Plant response rating, Kochia (kochia (Kochia scoparia) [9]; [17]): 90
- Plant response rating, Kochia (kochia (Kochia scoparia) [9]; [18]): 90
